Laboratory results published in patent US6713515B2, “Retinoic acid receptor antagonists as promoters of angiogenesis” (Bristol Myers Squibb Company, priority 2000, dated 2004).
Entries after “also recorded” stand apart in the source; their conditions may differ.

Legend:
[1] = biological target: T1, RAR-α (Homo sapiens, UniProt P10276); test: Receptor transactivation, GAL4-RAR chimeric receptor/CAT reporter in HeLa cells; type: cell-based; conditions: 24 hours
T1 sequence (P10276 with tags, fused parts or gaps limits assumed, species assumed): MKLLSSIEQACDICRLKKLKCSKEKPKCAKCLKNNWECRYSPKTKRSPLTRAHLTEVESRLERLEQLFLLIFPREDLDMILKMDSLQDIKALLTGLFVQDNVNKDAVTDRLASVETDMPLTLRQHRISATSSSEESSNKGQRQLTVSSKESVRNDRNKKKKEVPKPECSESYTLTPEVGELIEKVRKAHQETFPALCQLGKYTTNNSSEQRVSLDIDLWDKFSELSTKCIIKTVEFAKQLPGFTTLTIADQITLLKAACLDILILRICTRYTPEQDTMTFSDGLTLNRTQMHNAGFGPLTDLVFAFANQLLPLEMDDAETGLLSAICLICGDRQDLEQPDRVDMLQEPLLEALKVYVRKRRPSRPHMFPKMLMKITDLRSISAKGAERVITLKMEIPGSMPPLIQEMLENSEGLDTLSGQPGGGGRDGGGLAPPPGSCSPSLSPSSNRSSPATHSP

[2] = biological target: T2, RAR-β (Homo sapiens, UniProt P10826); test: as above; type: cell-based
T2 sequence (P10826 with tags, fused parts or gaps limits assumed, species assumed): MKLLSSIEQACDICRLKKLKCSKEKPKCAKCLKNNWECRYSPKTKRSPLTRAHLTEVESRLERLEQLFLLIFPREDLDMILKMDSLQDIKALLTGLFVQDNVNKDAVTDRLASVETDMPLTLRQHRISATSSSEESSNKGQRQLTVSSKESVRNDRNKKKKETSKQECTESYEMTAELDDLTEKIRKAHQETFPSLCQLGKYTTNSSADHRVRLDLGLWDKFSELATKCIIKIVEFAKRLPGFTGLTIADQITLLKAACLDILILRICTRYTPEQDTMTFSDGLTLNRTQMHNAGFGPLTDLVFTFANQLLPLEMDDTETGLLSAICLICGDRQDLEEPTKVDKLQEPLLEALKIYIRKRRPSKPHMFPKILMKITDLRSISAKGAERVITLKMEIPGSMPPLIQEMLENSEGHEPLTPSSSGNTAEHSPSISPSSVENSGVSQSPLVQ

[3] = biological target: T3, RAR-γ (Homo sapiens, UniProt P13631); test: as above; type: cell-based; conditions: 24 hours
T3 sequence (P13631 with tags, fused parts or gaps limits assumed, species assumed): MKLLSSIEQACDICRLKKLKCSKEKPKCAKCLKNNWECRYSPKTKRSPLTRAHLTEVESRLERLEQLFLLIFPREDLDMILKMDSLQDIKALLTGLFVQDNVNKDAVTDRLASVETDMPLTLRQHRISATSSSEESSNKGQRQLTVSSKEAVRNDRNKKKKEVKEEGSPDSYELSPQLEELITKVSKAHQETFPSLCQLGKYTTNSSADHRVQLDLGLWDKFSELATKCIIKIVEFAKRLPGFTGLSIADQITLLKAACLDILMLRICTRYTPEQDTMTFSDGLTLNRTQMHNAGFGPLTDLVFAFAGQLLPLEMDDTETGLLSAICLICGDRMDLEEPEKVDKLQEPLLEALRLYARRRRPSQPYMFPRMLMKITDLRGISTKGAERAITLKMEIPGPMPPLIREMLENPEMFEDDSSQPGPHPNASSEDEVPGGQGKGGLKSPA

[4] = biological target: T4, RAR-α (Homo sapiens, UniProt P10276); test: Receptor binding competition assay with radioactive t-RA; conditions: apparent Kd from competition with radioactive t-RA, recombinant RAR; read-out: Direct Binding RAR-α Kd
T4 sequence (P10276 1-462): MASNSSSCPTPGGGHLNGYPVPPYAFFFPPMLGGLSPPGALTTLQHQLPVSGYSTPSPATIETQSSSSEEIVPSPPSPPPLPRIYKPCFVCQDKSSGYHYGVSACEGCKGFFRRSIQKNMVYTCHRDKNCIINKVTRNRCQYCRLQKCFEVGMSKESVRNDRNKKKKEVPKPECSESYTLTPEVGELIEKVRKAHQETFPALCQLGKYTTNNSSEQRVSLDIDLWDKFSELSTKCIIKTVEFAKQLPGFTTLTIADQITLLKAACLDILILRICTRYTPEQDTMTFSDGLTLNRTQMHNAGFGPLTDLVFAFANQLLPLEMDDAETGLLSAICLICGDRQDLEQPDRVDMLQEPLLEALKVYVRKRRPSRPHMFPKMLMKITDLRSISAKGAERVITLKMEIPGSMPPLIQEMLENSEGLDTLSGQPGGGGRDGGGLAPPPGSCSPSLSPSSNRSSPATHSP

[5] = biological target: T5, RAR-γ (Homo sapiens, UniProt P13631); test: as above; conditions: for Kd: apparent Kd from competition with radioactive t-RA, recombinant RAR, read-out: Direct Binding RAR-γ Kd
T5 sequence (P13631 1-454): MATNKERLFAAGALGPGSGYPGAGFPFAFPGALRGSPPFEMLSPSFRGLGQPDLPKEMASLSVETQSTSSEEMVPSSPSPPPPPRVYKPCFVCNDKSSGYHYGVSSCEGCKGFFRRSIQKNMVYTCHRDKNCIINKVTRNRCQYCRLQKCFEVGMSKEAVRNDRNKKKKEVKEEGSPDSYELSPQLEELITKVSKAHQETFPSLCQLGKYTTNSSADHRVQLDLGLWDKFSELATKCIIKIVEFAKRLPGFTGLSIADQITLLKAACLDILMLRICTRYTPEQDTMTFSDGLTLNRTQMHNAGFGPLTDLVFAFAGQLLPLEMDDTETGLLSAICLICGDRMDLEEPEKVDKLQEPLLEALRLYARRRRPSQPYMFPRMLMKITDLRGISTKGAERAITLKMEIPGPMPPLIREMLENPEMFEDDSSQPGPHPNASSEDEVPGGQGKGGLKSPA

[6] = biological target: T2, RAR-β; test: Transactivation competition assay (antagonist activity) in transfected HeLa cells; type: cell-based; conditions: for Competition RAR-β % MAX: inhibition of transactivation by 10^−7 M t-RA, 16 hours
[7] = biological target: T1, RAR-α; test: as above; type: cell-based; conditions: for Competition RAR-α % MAX: inhibition of transactivation by 10^−7 M t-RA, 16 hours
Procedure: (§1) Antagonist Activity Antagonist activity of the test retinoids was evaluated by a transactivation competition assay. Transfected HeLa cells were treated for 16 hours with 10^−7 M t-RA, with or without test retinoids, at concentrations of 10^−8 to 10^−5 M. The cells were then harvested and assayed for CAT activity. The antagonist activity was determined as an IC50 for the inhibition of transactivation produced by t-RA.

[8] = biological target: T3, RAR-γ; test: as above; type: cell-based; conditions: for Competition RAR-γ % MAX: inhibition of transactivation by 10^−7 M t-RA, 16 hours
Procedure: as §1

[9] = biological target: T6, RAR-β (Homo sapiens, UniProt P10826); test: Receptor binding competition assay with radioactive t-RA; conditions: apparent Kd from competition with radioactive t-RA, recombinant RAR; read-out: Direct Binding RAR-β Kd
T6 sequence (P10826 1-455): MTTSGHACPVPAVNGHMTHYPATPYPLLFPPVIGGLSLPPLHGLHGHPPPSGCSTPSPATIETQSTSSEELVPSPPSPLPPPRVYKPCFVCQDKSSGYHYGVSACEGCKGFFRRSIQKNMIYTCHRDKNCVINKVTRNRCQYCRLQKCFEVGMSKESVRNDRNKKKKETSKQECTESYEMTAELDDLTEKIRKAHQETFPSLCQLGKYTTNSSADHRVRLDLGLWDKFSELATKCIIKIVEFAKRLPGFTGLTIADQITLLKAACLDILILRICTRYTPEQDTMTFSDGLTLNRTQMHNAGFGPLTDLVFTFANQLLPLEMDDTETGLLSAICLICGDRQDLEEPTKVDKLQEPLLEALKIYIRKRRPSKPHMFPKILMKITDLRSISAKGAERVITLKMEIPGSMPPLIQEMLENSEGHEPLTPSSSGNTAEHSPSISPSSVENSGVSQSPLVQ

[10] = tested on: C57BL/KsJ mice; test: Skin flap model of angiogenesis; type: in vivo
Procedure: The skin flap model is a suitable in vivo approach to monitor the angiogenic response because it requires restoration of the disrupted blood vessel network that is impaired at the distal edge of the flap. A single application of vehicle (ethanol) or different concentrations of Compound 5 were performed. The results were monitored one and two weeks after the initiation of the experiment.
Sections were deparaffinized in xylene and rehydrated in a series of ethanol/water solutions. A 4% mouse non-immune serum in PBS was used for blocking. Monoclonal anti-PECAM-1 antibody (CD31, Sigma) was used at 1:100 dilution. FITC-conjugated anti-mouse IgG antibody (Sigma) was further applied to the sections at 1:200 dilution. Visualization was performed on an Olympus fluorescent microscope.
Female C57BL/KsJ mice were purchased from Jackson Labs (Bar Harbor, Me., USA) at the age of 6 weeks. Animals were acclimated for at least 2 weeks and housed 4 per cage with free access to water and food under 12 h light/dark cycle at a temperature of 23±2° C. and a humidity of 55±10%.
The mice were anesthetized by an IP injection of xyalazine/ketamine, the hair at the back clipped and the surface sterilized with 70% ethanol. A 3-way, full-thickness incision was introduced with the use of a scalpel, the skin flap separated from underlying tissues, the compound or vehicle applied, and the skin repositioned and sutured. Mice were housed individually after the procedure. The animals were sacrificed by CO2 inhalation and tissues were fixed in formalin, embedded in paraffin and evaluated histologically or immunocytochemically.

SMILES | Transactivation RAR-α % MAX [1] [%] | Transactivation RAR-β % MAX ([2]; HeLa cells, 24 hours) [%] | Transactivation RAR-γ % MAX [3] [%] | Kd [4] [nM] | Kd [5] [nM] | RARβ transactivation (agonistic) activity, in words ([2]; reporter transactivation assays) | Competition RAR-β % MAX [6] [%] | IC50 [7] [nM] | Competition RAR-α % MAX [7] [%] | IC50 [8] [nM] | Competition RAR-γ % MAX [8] [%] | Kd [9] [nM] | Binding to RARγ relative to Compound 4 ([5]; comparison of Kd values) | IC50 [6] [nM] | Amount of endothelial cells (anti-PECAM-1 staining) ([10]; 0.01% and 0.1%, dose-dependent, FIG. 4) | Number of blood vessels under the flap (histology, H&E) ([10]; lower dose group, FIG. 3 center panel) | Number of blood vessels under the flap (histology, H&E) ([10]; single application, 0.01% and 0.1%, one and two weeks, vs ethanol vehicle, FIG. 3) | EC50 ([2]; HeLa cells, 24 hours, 50% of the effect of 10^−6 M t-RA) [nM]
CC1=C(/C=C/C(C)=C/C=C/C(C)=C/C(=O)O)C(C)(C)CCC1 [All Trans RA, all trans retinoic acid, reference compound] | 100 | 100 | 100 | – | – | – | – | – | – | – | – | – | – | – | – | – | – | –
CC1(C)CC=C(c2ccccc2)c2cc(/C=C/c3ccc(C(=O)O)cc3)ccc21 [Compound 4, (E)-4-[2-(5,6-dihydro-5,5-dimethyl-8-phenyl-2-naphthalenyl)ethenyl]benzoic acid] | 0 | 20 | 0 | 1 | 0.5 | weak RARβ transactivation activity; also recorded: weak RARβ agonistic activity | 80 | 200 | 100 | 200 | 100 | – | – | – | – | – | – | –
CC1(C)CC=C(C#Cc2ccccc2)c2cc(/C=C/c3ccc(C(=O)O)cc3)ccc21 [Compound 5, (E)-4-[[(5,6-dihydro-5,5-dimethyl-8-phenylethynyl)-2-naphthalenyl]ethenl]benzoic acid] | 0 | 0 | 0 | 4.2 | 98 | – | 100 | 200 | 100 | 300 | 100 | 2.9 | approximately two orders weaker | 300 | increased amounts of endothelial cells; also recorded: higher amounts of endothelial cells | increase in the number of blood vessels | increased angiogenesis; also recorded: significantly higher numbers of blood vessels | –
CC1(C)CC=C(c2ccc3ccccc3c2)c2cc(/C=C/c3ccc(C(=O)O)cc3)ccc21 [Compound 6, (E)-4-[2-[5,6-dihydro-5,5-dimethyl-8-(2-naphthalenyl)-2-naphthalenyl]ethenyl]-benzoic acid] | 0 | 0 | 0 | 2 | 24 | – | 100 | 300 | 100 | 900 | 100 | 57 | – | 500 | – | – | – | –
COc1ccc(C2=CCC(C)(C)c3ccc(/C=C/c4ccc(C(=O)O)cc4)cc32)cc1 [Compound 7, (E)-4-[2-[5,6-dihydro-5,5-dimethyl-8-(4-methoxyphenyl)-2-naphthalenyl]ethenyl]benzoic acid] | 0 | 0 | 0 | 1.3 | 2.6 | – | 100 | 400 | 100 | 1000 | 100 | 6.1 | – | 1000 | – | – | – | –
CC1(C)CC=C(c2ccccc2)c2cc(/C=C/c3ccc(C(=O)O)cc3Cl)ccc21 [Compound 8, (E)-3-chloro-4-[2-(5,6-dihydro-5,5-dimethyl-8-phenyl-2-naphthalenyl)ethenyl]benzoic acid] | 0 | 110 | 0 | 200 | 245 | – | 0 | 3000 | 80 | 2000 | 80 | 2.8 | – | – | – | – | – | 10
